Where two headings read alike, the source gives them in different places.
Tests used:
Format in all cases: cell-based
[1] = system: recombinant NL4-3 virus (Renilla luciferase in nef); assay: HIV cell culture assay (antiviral activity, luciferase readout in MT-2 cells)
Procedure, shortened: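 MT-2 cells were infected for 4-5 days with 293T-derived recombinant NL4-3 reporter virus in the presence of serially diluted compound. Antiviral activity was quantified as luciferase activity using a live-cell substrate. EC50 was derived from the median effect equation.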

[2] = Compound cytotoxicity, XTT-based colorimetric assay; conditions: human; uninfected MT2 cells, day 4, XTT
Description: (§1) Compound cytotoxicity and the corresponding CC50 values were determined using the same protocol as described in the antiviral assay except that uninfected cells were used. Cytotoxicity was assessed on day 4 in uninfected MT2 cells by using an XTT (2,3-bis[2-Methoxy-4-nitro-5-sulfophenyl]-2H-tetrazolium-5-carboxyanilide inner salt)-based colorimetric assay (Sigma-Aldrich, St Louis, Mo.).

uninfected MT2 cells = assay: as above; conditions: day 4, XTT
Description: as §1

[3] = MT=2 cells infected for 4-5 days with the recombinant virus, luciferase activity, read-out: EC50

Structure (SMILES) | EC50 ([1]; Renilla, NL43) | CC50 at 4 days [2] | EC50 [1, 3] | CC50 (uninfected MT2 cells)
Cn1nc(NS(C)(=O)=O)c2c(Cl)ccc(-n3c([C@H](Cc4cc(F)cc(F)c4)NC(=O)Cn4ccc(C5CC5)n4)nc4cc(-c5ccn(CC(C)(F)F)n5)ccc4c3=O)c21 (atropisomer, axis not shown; (P)) [Example 61, (S)—N-(1-((3P)-3-(4-chloro-1-methyl-3-(methylsulfonamido)-1H-indazol-7-yl)-7-(1-(2,2-difluoropropyl)-1H-pyrazol-3-yl)-4-oxo-3,4-dihydroquinazolin-2-yl)-2-(3,5-difluorophenyl)ethyl)-2-(3-cyclopropyl-1H-pyrazol-1-yl)acetamide] | 57 pM | > 100000 pM | – | –
Cn1nc(NS(C)(=O)=O)c2c(Cl)ccc(-n3c([C@H](Cc4cc(F)cc(F)c4)NC(=O)Cn4ccc(C5CC5)n4)nc4cc(-c5ccn(CC(F)(F)C(F)F)n5)ccc4c3=O)c21 (atropisomer, axis not shown; (P)) [Example 63, (S)—N-(1-((3P)-3-(4-chloro-1-methyl-3-(methylsulfonamido)-1H-indazol-7-yl)-4-oxo-7-(1-(2,2,3,3-tetrafluoropropyl)-1H-pyrazol-3-yl)-3,4-dihydroquinazolin-2-yl)-2-(3,5-difluorophenyl)ethyl)-2-(3-cyclopropyl-1H-pyrazol-1-yl)acetamide] | 43 pM | > 100000 pM | – | –
CC(F)(F)Cn1ccc(-c2ccc3c(=O)n(-c4ccc(Cl)c5c(NS(C)(=O)=O)nn(CC(F)F)c45)c([C@H](Cc4cc(F)cc(F)c4)NC(=O)Cn4nc(C(F)F)c5c4C(F)(F)[C@@H]4C[C@H]54)nc3c2)n1 (atropisomer, axis not shown; (P)) [Example 64, N—((S)-1-((3P)-3-(4-chloro-1-(2,2-difluoroethyl)-3-(methylsulfonamido)-1H-indazol-7-yl)-7-(1-(2,2-difluoropropyl)-1H-pyrazol-3-yl)-4-oxo-3,4-dihydroquinazolin-2-yl)-2-(3,5-difluorophenyl)ethyl)-2-((3bS,4aR)-3-(difluoromethyl)-5,5-difluoro-3b,4,4a,5-tetrahydro-1H-cyclopropa[3,4]cyclopenta[1,2-c]pyrazol-1-yl)acetamide] | 87 pM | > 100000 pM | – | –
C[C@H](C(=O)N[C@@H](Cc1cc(F)cc(F)c1)c1nc2cc(-c3ccn(CC(C)(F)F)n3)ccc2c(=O)n1-c1ccc(Cl)c2c(NS(C)(=O)=O)nn(C)c12)n1ccc(C2CC2)n1 (atropisomer, axis not shown; (P)) [Example 65, (R)—N—((S)-1-((3P)-3-(4-chloro-1-methyl-3-(methylsulfonamido)-1H-indazol-7-yl)-7-(1-(2,2-difluoropropyl)-1H-pyrazol-3-yl)-4-oxo-3,4-dihydroquinazolin-2-yl)-2-(3,5-difluorophenyl)ethyl)-2-(3-cyclopropyl-1H-pyrazol-1-yl)propanamide] | 170 pM | > 100000 pM | – | –
Cn1nc(NS(C)(=O)=O)c2c(Cl)ccc(-n3c([C@H](Cc4cc(F)cc(F)c4)NC(=O)Cn4nc(C(F)(F)F)c5c4C(F)(F)[C@@H]4C[C@H]54)nc4cc(-c5ccn(CC(C)(F)F)n5)ccc4c3=O)c21 (atropisomer, axis not shown; (P)) [Example 66, N—((S)-1-((3P)-3-(4-chloro-1-methyl-3-(methylsulfonamido)-1H-indazol-7-yl)-7-(1-(2,2-difluoropropyl)-1H-pyrazol-3-yl)-4-oxo-3,4-dihydroquinazolin-2-yl)-2-(3,5-difluorophenyl)ethyl)-2-((3bS,4aR)-5,5-difluoro-3-(trifluoromethyl)-3b,4,4a,5-tetrahydro-1H-cyclopropa[3,4]cyclopenta[1,2-c]pyrazol-1-yl)acetamide] | 69 pM | > 100000 pM | – | –
Cc1cc(-c2ccc3c(=O)n(-c4ccc(Cl)c5c(NS(C)(=O)=O)nn(C)c45)c([C@H](Cc4cc(F)cc(F)c4)NC(=O)Cn4nc(C(F)F)c5c4C(F)(F)[C@@H]4C[C@H]54)nc3c2)nn1CC(C)(F)F (atropisomer, axis not shown; (P)) [Example 68, N—((S)-1-((3P)-3-(4-chloro-1-methyl-3-(methylsulfonamido)-1H-indazol-7-yl)-7-(1-(2,2-difluoropropyl)-5-methyl-1H-pyrazol-3-yl)-4-oxo-3,4-dihydroquinazolin-2-yl)-2-(3,5-difluorophenyl)ethyl)-2-((3bS,4aR)-3-(difluoromethyl)-5,5-difluoro-3b,4,4a,5-tetrahydro-1H-cyclopropa[3,4]cyclopenta[1,2-c]pyrazol-1-yl)acetamide] | 96 pM | > 100000 pM | – | –
CC(F)(F)Cn1ccc(-c2ccc3c(=O)n(-c4ccc(Cl)c5c(NS(=O)(=O)C6CC6)nn(CC(F)F)c45)c([C@H](Cc4cc(F)cc(F)c4)NC(=O)Cn4nc(C(F)F)c5c4C(F)(F)[C@@H]4C[C@H]54)nc3c2)n1 (atropisomer, axis not shown; (P)) [Example 69, N—((S)-1-((3P)-3-(4-chloro-3-(cyclopropanesulfonamido)-1-(2,2-difluoroethyl)-1H-indazol-7-yl)-7-(1-(2,2-difluoropropyl)-1H-pyrazol-3-yl)-4-oxo-3,4-dihydroquinazolin-2-yl)-2-(3,5-difluorophenyl)ethyl)-2-((3bS,4aR)-3-(difluoromethyl)-5,5-difluoro-3b,4,4a,5-tetrahydro-1H-cyclopropa[3,4]cyclopenta[1,2-c]pyrazol-1-yl)acetamide] | 160 pM | > 100000 pM | – | –
CC(C(=O)NC(Cc1cc(F)cc(F)c1)c1nc2cc(-c3ccn(CC(C)(F)F)n3)ccc2c(=O)n1-c1ccc(Cl)c2c(NS(C)(=O)=O)nn(C)c12)n1ccc(C2CC2)n1 [Example 58, (S)—N—((S)-1-((3P)-3-(4-chloro-1-methyl-3-(methylsulfonamido)-1H-indazol-7-yl)-7-(1-(2,2-difluoropropyl)-1H-pyrazol-3-yl)-4-oxo-3,4-dihydroquinazolin-2-yl)-2-(3,5-difluorophenyl)ethyl)-2-(3-cyclopropyl-1H-pyrazol-1-yl)propanamide] | – | – | 46 pM | > 100000 pM
Cn1nc(NS(C)(=O)=O)c2c(Cl)ccc(-n3c([C@H](Cc4cc(F)cc(F)c4)NC(=O)Cn4nc(C(F)(F)F)c5c4C(F)(F)[C@@H]4C[C@H]54)nc4cc(-c5ccn(CC(F)(F)C(F)F)n5)ccc4c3=O)c21 [Example 59, N—((S)-1-((3P)-3-(4-chloro-1-methyl-3-(methylsulfonamido)-1H-indazol-7-yl)-4-oxo-7-(1-(2,2,3,3-tetrafluoropropyl)-1H-pyrazol-3-yl)-3,4-dihydroquinazolin-2-yl)-2-(3,5-difluorophenyl)ethyl)-2-((3bS,4aR)-5,5-difluoro-3-(trifluoromethyl)-3b,4,4a,5-tetrahydro-1H-cyclopropa[3,4]cyclopenta[1,2-c]pyrazol-1-yl)acetamide] | – | – | 110 pM | > 100000 pM
CS(=O)(=O)Nc1nn(CCCF)c2c(-n3c([C@H](Cc4cc(F)cc(F)c4)NC(=O)Cn4nc(C(F)F)c5c4C(F)(F)[C@@H]4C[C@H]54)nc4cc(-c5ccnn5CC(F)(F)C(F)F)ccc4c3=O)ccc(Cl)c12 [Example 62, N—((S)-1-((3P)-3-(4-chloro-1-(3-fluoropropyl)-3-(methylsulfonamido)-1H-indazol-7-yl)-4-oxo-7-(1-(2,2,3,3-tetrafluoropropyl)-1H-pyrazol-5-yl)-3,4-dihydroquinazolin-2-yl)-2-(3,5-difluorophenyl)ethyl)-2-((3bS,4aR)-3-(difluoromethyl)-5,5-difluoro-3b,4,4a,5-tetrahydro-1H-cyclopropa[3,4]cyclopenta[1,2-c]pyrazol-1-yl)acetamide] | 74 pM | > 100000 pM | – | –
CS(=O)(=O)Nc1nn(CCCF)c2c(-n3c([C@H](Cc4cc(F)cc(F)c4)NC(=O)Cn4nc(C(F)F)c5c4C(F)(F)[C@@H]4C[C@H]54)nc4cc(-c5ccn(CC(F)(F)C(F)F)n5)ccc4c3=O)ccc(Cl)c12 [Example 67, N—((S)-1-((3P)-3-(4-chloro-1-(3-fluoropropyl)-3-(methylsulfonamido)-1H-indazol-7-yl)-4-oxo-7-(1-(2,2,3,3-tetrafluoropropyl)-1H-pyrazol-3-yl)-3,4-dihydroquinazolin-2-yl)-2-(3,5-difluorophenyl)ethyl)-2-((3bS,4aR)-3-(difluoromethyl)-5,5-difluoro-3b,4,4a,5-tetrahydro-1H-cyclopropa[3,4]cyclopenta[1,2-c]pyrazol-1-yl)acetamide] | 49 pM | > 100000 pM | – | –

Reference: patent publication US20230013823A1, “INHIBITORS OF HUMAN IMMUNODEFICIENCY VIRUS REPLICATION” (VIV HEALTHCARE UK (No. 5) LIMITED, priority 2019, published 2023)
